For assay [1], the system named is prostate line LNCap. In words: In vitro cell culture growth assay (MTS), LNCap. In kind it is cell-based, human. Particulars: Homo sapiens, LNCaP, 72 h, LNCap cells, three days after drug treatment.
For assay [2], the system named is breast line MDA468. In words: In vitro cell culture growth assay (MTS), MDA468. The assay is classed as cell-based, human. Particulars: Homo sapiens, 72 h, MDA468 cells, three days after drug treatment. In short, it runs like this: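 Cells were plated and, one day later, exposed to inhibitors for three days; viable cell density was then measured by metabolic conversion of MTS dye, read as absorbance at 490 nm. Growth is expressed as percent of vehicle-treated control cells on the same plate.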

The target of assay [3] is PI3K (Homo sapiens, UniProt P42336). The assay can be described thus: Fluorescence polarization assay for PI3K.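 Further: PI3K kinase reaction on PIP2 with ATP, 30-60 min, product sensed by GST-GRP with red probe in fluorescence polarization (mP), controls without enzyme and at zero time.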 The assay is classed as biochemical. The note with it: PI3Kα; read-out: PI3Kα IC50. A general note: Polarisation of emitted light reports the rotation of a fluorescent probe.
PI3K, sequence (P42336 whole entry): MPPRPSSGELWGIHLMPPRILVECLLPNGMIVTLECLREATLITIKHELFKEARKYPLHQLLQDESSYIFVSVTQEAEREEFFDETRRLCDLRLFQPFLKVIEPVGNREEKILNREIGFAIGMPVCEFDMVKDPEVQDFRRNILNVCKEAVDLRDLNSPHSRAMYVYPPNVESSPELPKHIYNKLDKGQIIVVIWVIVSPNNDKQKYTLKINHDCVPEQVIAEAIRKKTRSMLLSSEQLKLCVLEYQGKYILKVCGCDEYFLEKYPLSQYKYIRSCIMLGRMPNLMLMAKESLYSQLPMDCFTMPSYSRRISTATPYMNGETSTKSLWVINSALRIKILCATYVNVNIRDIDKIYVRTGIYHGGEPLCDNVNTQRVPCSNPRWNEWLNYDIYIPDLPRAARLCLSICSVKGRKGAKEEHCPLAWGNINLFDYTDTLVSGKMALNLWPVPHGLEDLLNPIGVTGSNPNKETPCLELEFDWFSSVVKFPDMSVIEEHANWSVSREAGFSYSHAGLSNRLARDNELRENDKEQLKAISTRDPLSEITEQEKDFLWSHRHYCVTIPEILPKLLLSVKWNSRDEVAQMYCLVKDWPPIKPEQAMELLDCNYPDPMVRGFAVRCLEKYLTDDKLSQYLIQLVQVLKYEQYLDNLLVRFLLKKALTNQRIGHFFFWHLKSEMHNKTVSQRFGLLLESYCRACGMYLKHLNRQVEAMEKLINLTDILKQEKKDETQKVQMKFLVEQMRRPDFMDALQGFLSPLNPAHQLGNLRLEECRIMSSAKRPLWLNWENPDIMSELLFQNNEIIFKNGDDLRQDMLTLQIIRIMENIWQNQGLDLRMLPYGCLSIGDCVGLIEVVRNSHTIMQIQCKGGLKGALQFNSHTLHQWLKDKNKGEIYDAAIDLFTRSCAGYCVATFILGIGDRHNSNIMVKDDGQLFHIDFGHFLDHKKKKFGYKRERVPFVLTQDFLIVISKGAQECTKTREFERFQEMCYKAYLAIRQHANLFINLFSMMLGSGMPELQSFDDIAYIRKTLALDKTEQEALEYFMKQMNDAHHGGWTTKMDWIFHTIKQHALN
PI3K, sequence (P27986 whole entry partner): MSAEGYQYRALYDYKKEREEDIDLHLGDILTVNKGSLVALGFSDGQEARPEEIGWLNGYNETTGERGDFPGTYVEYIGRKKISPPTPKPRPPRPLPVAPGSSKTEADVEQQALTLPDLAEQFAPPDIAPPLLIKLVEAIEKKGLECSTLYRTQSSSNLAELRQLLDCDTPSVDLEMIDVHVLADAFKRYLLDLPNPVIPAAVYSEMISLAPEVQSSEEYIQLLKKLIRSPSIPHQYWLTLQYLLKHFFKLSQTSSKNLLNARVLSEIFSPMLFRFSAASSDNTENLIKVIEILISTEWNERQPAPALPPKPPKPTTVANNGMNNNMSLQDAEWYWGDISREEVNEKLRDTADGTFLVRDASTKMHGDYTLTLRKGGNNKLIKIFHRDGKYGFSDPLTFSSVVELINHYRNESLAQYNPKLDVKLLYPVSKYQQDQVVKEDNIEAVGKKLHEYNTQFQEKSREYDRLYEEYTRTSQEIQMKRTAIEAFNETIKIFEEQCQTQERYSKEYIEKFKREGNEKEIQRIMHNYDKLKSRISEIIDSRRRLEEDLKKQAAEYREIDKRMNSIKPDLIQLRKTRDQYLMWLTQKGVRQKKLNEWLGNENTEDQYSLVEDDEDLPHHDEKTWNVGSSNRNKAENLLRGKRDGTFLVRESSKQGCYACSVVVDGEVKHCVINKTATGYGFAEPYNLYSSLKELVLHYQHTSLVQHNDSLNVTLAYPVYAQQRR

Each structure is given as a SMILES string.

With `c1ccc(-n2ncc3c(N4CCOCC4)nc(-c4csc5ccccc45)nc32)cc1` [Compound 7], the IC50 in assay [1] amounted to 20000 nM; in assay [2] it was 38000 nM.
`Oc1cccc(-c2nc(N3CCOCC3)c3cnn(C4CCN(Cc5ccccc5)CC4)c3n2)c1` [Compound 8]: the IC50 came to 220 nM in assay [1] and 1900 nM in assay [2].
Turning to `O=C(c1cccnc1)N1CCC(n2ncc3c(N4CCOCC4)nc(-c4cccc(O)c4)nc32)CC1` [Compound 24, 3-{4-morpholin-4-yl-1-[1-(pyridin-3-ylcarbonyl)piperidin-4-yl]-1H-pyrazolo[3,4-d]pyrimidin-6-yl}phenol], the IC50 in assay [1] worked out at 200 nM; in assay [2], 700 nM.
On to `O=C(c1ccccc1)N1CCC(n2ncc3c(N4CCOCC4)nc(-c4cccc(O)c4)nc32)CC1` [Compound 25, 3-[1-(1-benzoylpiperidin-4-yl)-4-morpholin-4-yl-1H-pyrazolo[3,4-d]pyrimidin-6-yl]phenol], for which the IC50 in assay [1] was determined as 140 nM; in assay [2] it was 700 nM.
Regarding `O=C(c1cccnc1)N1CCC(n2ncc3c(N4CCOCC4)nc(-c4ccc5[nH]ccc5c4)nc32)CC1` [Compound 38, 6-(1H-indol-5-yl)-4-morpholin-4-yl-1-[1-(pyridin-3-ylcarbonyl)piperidin-4-yl]-1H-pyrazolo[3,4-d]pyrimidine], the 50% inhibitory concentration (IC50) in assay [1] stood at 380 nM; in assay [2], 1100 nM.
In the case of `CC(=O)Nc1cccc(-c2nc(N3CCOCC3)c3cnn(C4CCN(Cc5ccccc5)CC4)c3n2)c1` [Compound 78], the IC50 in assay [1] is 8000 nM; in assay [2] it was 12000 nM.
On to `Nc1ccc(-c2nc(N3CCOCC3)c3cnn(C4CCN(Cc5ccccc5)CC4)c3n2)cc1` [Compound 79], for which the results for the IC50 in assay [1] and in assay [2] were 4500 nM and 10000 nM, respectively.
Regarding `Nc1ccc(-c2nc(N3CCOCC3)c3cnn(-c4ccccc4)c3n2)cc1` [Compound 106, 4-(4-morpholin-4-yl-1-phenyl-1H-pyrazolo[3,4-d]pyrimidin-6-yl)aniline4-(4-morpholin-4-yl-1-phenyl-1H-pyrazolo[3,4-d]pyrimidin-6-yl)aniline], the IC50 in assay [1] came to 3000 nM; in assay [2] it was 11000 nM.
For `Nc1cccc(-c2nc(N3CCOCC3)c3cnn(-c4ccccc4)c3n2)c1` [Compound 107], the IC50 is 3500 nM in assay [1] and 10000 nM in assay [2].
As for `CC(=O)Nc1ccc(-c2nc(N3CCOCC3)c3cnn(-c4ccccc4)c3n2)cc1` [Compound 108, N-[4-(4-morpholin-4-yl-1-phenyl-1H-pyrazolo[3,4-d]pyrimidin-6-yl)phenyl]acetamide], the IC50 in assay [1] and in assay [2] was 60000 nM throughout.
For `c1ccc(-n2ncc3c(N4CCOCC4)nc(-c4ccc5[nH]ccc5c4)nc32)cc1` [Compound 110], the IC50 worked out at 2000 nM in assay [1] and 5500 nM in assay [2].
Turning to `NCCC(=O)Nc1ccc(-c2nc(N3CCOCC3)c3cnn(-c4ccccc4)c3n2)cc1` [Compound 134], the IC50 in assay [1] stood at 1200 nM; in assay [2] it was 1300 nM.
In the case of `CN(C)CC(=O)Nc1ccc(-c2nc(N3CCOCC3)c3cnn(-c4ccccc4)c3n2)cc1` [Compound 135], the IC50 in assay [1] was 3400 nM; in assay [2] it was 1200 nM.
Consider `NCC(=O)Nc1ccc(-c2nc(N3CCOCC3)c3cnn(-c4ccccc4)c3n2)cc1` [Compound 136], for which the results for the IC50 in assay [1] and in assay [2] were 1000 nM and 400 nM, respectively.
Take `COCCC(=O)Nc1ccc(-c2nc(N3CCOCC3)c3cnn(-c4ccccc4)c3n2)cc1` [Compound 138]: the IC50 in assay [1] turned out to be 4900 nM; in assay [2] it was 6500 nM.
Regarding `CN1CCC(C(=O)Nc2ccc(-c3nc(N4CCOCC4)c4cnn(-c5ccccc5)c4n3)cc2)CC1` [Compound 141], the IC50 turned out to be 3000 nM in assay [1] and 3800 nM in assay [2].
Turning to `CC(=O)N(C)c1ccc(-c2nc(N3CCOCC3)c3cnn(-c4ccccc4)c3n2)cc1` [Compound 149, N-methyl-N-[4-(4-morpholin-4-yl-1-phenyl-1H-pyrazolo[3,4-d]pyrimidin-6-yl)phenyl]acetamide], the IC50 in assay [1] was found to be 4500 nM; in assay [2] it was 40000 nM.
For `Nc1ccc(-c2nc(N3CCOCC3)c3cnn(C4CCN(Cc5ccccc5)CC4)c3n2)cn1` [Compound 155] the same measures were 100 nM and 1000 nM.
Taken in the same sequence, the figures for `c1cc2cc(-c3nc(N4CCOCC4)c4cnn([C@@H]5CCCNC5)c4n3)ccc2[nH]1` [Compound 168] were 3400 nM and 10000 nM.
Take `c1cc2cc(-c3nc(N4CCOCC4)c4cnn([C@H]5CCCNC5)c4n3)ccc2[nH]1` [Compound 170, 6-(1H-indol-5-yl)-4-morpholin-4-yl-1-[(3S)-piperidin-3-yl]-1H-pyrazolo[3,4-d]pyrimidine]: the IC50 in assay [1] was determined as 3300 nM; in assay [2], 12000 nM.
Consider `Nc1ncc(-c2nc(N3CCOCC3)c3cnn(C4CCN(Cc5ccccc5)CC4)c3n2)cn1` [Compound 191], for which the IC50 in assay [1] was found to be 80 nM; in assay [2], 400 nM.
With `Oc1ccc(-c2nc(N3CCOCC3)c3cnn(C4CCN(Cc5ccccc5)CC4)c3n2)cn1` [Compound 192], the IC50 in assay [1] was determined as 16000 nM; in assay [2] it was 40000 nM.
In the case of `O=CNc1ccc(-c2nc(N3CCOCC3)c3cnn(C4CCN(Cc5ccccc5)CC4)c3n2)cc1` [Compound 231, N-{4-[1-(1-benzylpiperidin-4-yl)-4-morpholin-4-yl-1H-pyrazolo[3,4-d]pyrimidin-6-yl]phenyl}formamide], the IC50 in assay [1] turned out to be 1400 nM; in assay [2] it was 4500 nM.
As for `Oc1ccc(-c2nc(N3CCOCC3)c3cnn(C4CCN(Cc5ccccc5)CC4)c3n2)cc1` [Compound 232, 4-[1-(1-benzylpiperidin-4-yl)-4-morpholin-4-yl-1H-pyrazolo[3,4-d]pyrimidin-6-yl]phenol], the IC50 in assay [1] stood at 1400 nM; in assay [2], 4000 nM.
Consider `O=C(Nc1ccc(-c2nc(N3CCOCC3)c3cnn(C4CCN(C(=O)c5ccccc5)CC4)c3n2)cc1)Nc1cccnc1` [Example 379, 1-{4-[1-(1-benzoylpiperidin-4-yl)-4-morpholin-4-yl-1H-pyrazolo[3,4-d]pyrimidin-6-yl]phenyl}-3-pyridin-3-ylurea], for which the IC50 in assay [1] was found to be 27 nM; in assay [3], 35 nM.
Consider `O=C(NCCF)Nc1ccc(-c2nc(N3CCOCC3)c3cnn(C4CCN(C(=O)c5ccccc5)CC4)c3n2)cc1` [Example 380, 1-{4-[1-(1-benzoylpiperidin-4-yl)-4-morpholin-4-yl-1H-pyrazolo[3,4-d]pyrimidin-6-yl]phenyl}-3-(2-fluoroethyl)urea], for which the IC50 was 27 nM in assay [1] and 454 nM in assay [3].
For the compound `CCNC(=O)Nc1ccc(-c2nc(N3CCOCC3)c3cnn(C4CCN(C(=O)c5ccccc5)CC4)c3n2)cc1` [Example 381, 1-{4-[1-(1-benzoylpiperidin-4-yl)-4-morpholin-4-yl-1H-pyrazolo[3,4-d]pyrimidin-6-yl]phenyl}-3-ethylurea], the values for the IC50 in assay [1] and in assay [3] were 27 nM and 355 nM, respectively.
On to `O=C(Nc1ccc(-c2nc(N3CCOCC3)c3cnn(C4CCN(C(=O)c5cccnc5)CC4)c3n2)cc1)Nc1cccs1` [Example 413, 1-(4-{4-morpholin-4-yl-1-[1-(pyridin-3-ylcarbonyl)piperidin-4-yl]-1H-pyrazolo[3,4-d]pyrimidin-6-yl}phenyl)-3-(2-thienyl)urea], for which the IC50 in assay [1] is 35 nM; in assay [3], 15 nM.

What is called IC50 is the concentration that gives 50% inhibition.

The record behind these values is patent US20080234262A1 (Wyeth, priority 2007, published 2008).
